Laboratory results from patent publication US10576062B2, “Carbamoyloxymethyl triazole cyclohexyl acids as LPA antagonists” (Bristol-Myers Squibb Company, priority 2016, dated 2020).

target: T1, human LPA1 (Homo sapiens, UniProt Q92633); experiment: LPA1 functional antagonist assay (LPA-induced calcium flux); format: cell-based; conditions: CHO cells overexpressing human LPA1; inhibition of calcium flux induced by 10 nM LPA; read-out: hLPA1 IC50
T1 construct: expressed in transfected cells; host or cells: Chinese hamster ovary (CHO) cells
In short: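 CHO cells overexpressing human LPA1, loaded with calcium dye 30 min at 37° C, were preincubated 20 min at room temperature with compound (0.08 nM–5 μM, 0.5% DMSO) in HBSS/20 mM HEPES/0.1% fatty acid-free BSA.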

T1 sequence (Q92633 whole entry): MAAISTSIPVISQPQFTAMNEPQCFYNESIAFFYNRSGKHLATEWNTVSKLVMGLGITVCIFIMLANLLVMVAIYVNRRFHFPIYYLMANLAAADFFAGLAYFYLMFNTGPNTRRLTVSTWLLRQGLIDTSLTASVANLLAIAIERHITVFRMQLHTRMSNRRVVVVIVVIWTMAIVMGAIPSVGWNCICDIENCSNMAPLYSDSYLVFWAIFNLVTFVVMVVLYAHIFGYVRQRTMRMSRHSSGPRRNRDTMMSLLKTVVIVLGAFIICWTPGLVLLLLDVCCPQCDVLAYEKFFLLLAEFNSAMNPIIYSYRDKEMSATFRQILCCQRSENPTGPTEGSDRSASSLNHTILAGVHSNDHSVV

SMILES	IC50
CN(CC1CCC1)C(=O)OCc1c(-c2ccc(O[C@H]3CCC[C@H](C(=O)O)C3)c(C(C)(C)O)n2)nnn1C [Example 271, (1S,3 S)-3-((6-(5-((((cyclobutylmethyl)(methyl)carbamoyl)oxy)methyl)-1-methyl-1H-1,2,3-triazol-4-yl)-2-(2-hydroxypropan-2-yl)pyridin-3-yl)oxy)cyclohexane-1-carboxylic Acid]	225 nM
CCCN(C)C(=O)OCc1c(-c2ccc(O[C@H]3CCC[C@H](C(=O)O)C3)c(OC)n2)nnn1C [Example 272, (1S,3 S)-3-((2-Methoxy-6-(1-methyl-5-(((methyl(propyl)carbamoyl)oxy)methyl)-1H-1,2,3-triazol-4-yl)pyridin-3-yl)oxy)cyclohexane-1-carboxylic Acid]	4 nM
CN(CC1CC1)C(=O)OCc1c(-c2ccc(O[C@H]3CCC[C@H](C(=O)O)C3)c(C(F)(F)F)n2)nnn1C [Example 273, (1S,3S)-3-((6-(5-((((cyclopropylmethyl)(methyl)carbamoyl)oxy)methyl)-1-methyl-1H-1,2,3-triazol-4-yl)-2-(trifluoromethyl)pyridin-3-yl)oxy)cyclohexane-1-carboxylic acid]	7 nM
CCCN(C)C(=O)OCc1c(-c2ccc(O[C@H]3CCC[C@H](C(=O)O)C3)c(C(F)(F)F)n2)nnn1C [Example 274, (1S,3S)-3-((6-(1-methyl-5-(((methyl(propyl)carbamoyl)oxy)methyl)-1H-1,2,3-triazol-4-yl)-2-(trifluoromethyl)pyridin-3-yl)oxy)cyclohexane-1-carboxylic acid]	28 nM
CCCCN(C)C(=O)OCc1c(-c2ccc(O[C@H]3CCC[C@H](C(=O)O)C3)c(C(F)(F)F)n2)nnn1C [Example 275, (1S,3S)-3-((6-(5-(((butyl(methyl)carbamoyl)oxy)methyl)-1-methyl-1H-1,2,3-triazol-4-yl)-2-(trifluoromethyl)pyridin-3-yl)oxy)cyclohexane-1-carboxylic acid]	5.6 nM
CN(C(=O)OCc1c(-c2ccc(O[C@H]3CCC[C@H](C(=O)O)C3)c(C(F)(F)F)n2)nnn1C)C1CCCC1 [Example 276, (1S,3S)-3-((6-(5-(((cyclopentyl(methyl)carbamoyl)oxy)methyl)-1-methyl-1H-1,2,3-triazol-4-yl)-2-(trifluoromethyl)pyridin-3-yl)oxy)cyclohexane-1-carboxylic acid]	15 nM
CCCN(C)C(=O)OCc1c(-c2ccc(O[C@H]3CCC[C@H](C(=O)O)C3)c(C(F)F)n2)nnn1C [Example 277, (1S,3S)-3-((2-(difluoromethyl)-6-(1-methyl-5-(((methyl(propyl)carbamoyl)oxy)methyl)-1H-1,2,3-triazol-4-yl)pyridin-3-yl)oxy)cyclohexane-1-carboxylic acid]	35 nM
CCCCN(C)C(=O)OCc1c(-c2ccc(O[C@H]3CCC[C@H](C(=O)O)C3)c(C(F)F)n2)nnn1C [Example 278, (1S,3S)-3-((6-(5-(((butyl(methyl)carbamoyl)oxy)methyl)-1-methyl-1H-1,2,3-triazol-4-yl)-2-(difluoromethyl)pyridin-3-yl)oxy)cyclohexane-1-carboxylic acid]	22 nM
CN(CC1CC1)C(=O)OCc1c(-c2ccc(O[C@H]3CCC[C@H](C(=O)O)C3)c(C(F)F)n2)nnn1C [Example 279, (1S,3S)-3-((6-(5-((((cyclopropylmethyl)(methyl)carbamoyl)oxy)methyl)-1-methyl-1H-1,2,3-triazol-4-yl)-2-(difluoromethyl)pyridin-3-yl)oxy)cyclohexane-1-carboxylic acid]	21 nM
CN(C(=O)OCc1c(-c2ccc(O[C@H]3CCC[C@H](C(=O)O)C3)c(C(F)F)n2)nnn1C)C1CCC1 [Example 280, (1S,3S)-3-((6-(5-(((cyclobutyl(methyl)carbamoyl)oxy)methyl)-1-methyl-1H-1,2,3-triazol-4-yl)-2-(difluoromethyl)pyridin-3-yl)oxy)cyclohexane-1-carboxylic acid]	22 nM
CN(C(=O)OCc1c(-c2ccc(O[C@H]3CCC[C@H](C(=O)O)C3)c(C(F)F)n2)nnn1C)C1CCCC1 [Example 281, (1S,3S)-3-((6-(5-(((cyclopentyl(methyl)carbamoyl)oxy)methyl)-1-methyl-1H-1,2,3-triazol-4-yl)-2-(difluoromethyl)pyridin-3-yl)oxy)cyclohexane-1-carboxylic acid]	35 nM
CN(Cc1ccccc1)C(=O)OCc1c(-c2ccc(O[C@H]3CCC[C@H](C(=O)O)C3)c(C(F)F)n2)nnn1C [Example 282, (1S,3S)-3-((6-(5-(((benzyl(methyl)carbamoyl)oxy)methyl)-1-methyl-1H-1,2,3-triazol-4-yl)-2-(difluoromethyl)pyridin-3-yl)oxy)cyclohexane-1-carboxylic acid]	19 nM
CCCN(C)C(=O)OCc1c(-c2ccc(O[C@H]3CCC[C@H](C(=O)O)C3)c(COC)n2)nnn1C [Example 283, (1S,3S)-3-((2-(methoxymethyl)-6-(1-methyl-5-(((methyl(propyl)carbamoyl)oxy)methyl)-1H-1,2,3-triazol-4-yl)pyridin-3-yl)oxy)cyclohexane-1-carboxylic acid]	475 nM
CCCCN(C)C(=O)OCc1c(-c2ccc(O[C@H]3CCC[C@H](C(=O)O)C3)c(COC)n2)nnn1C [Example 284]	48 nM
COCc1nc(-c2nnn(C)c2COC(=O)N(C)CC2CC2)ccc1O[C@H]1CCC[C@H](C(=O)O)C1 [Example 285, (1S,3S)-3-((6-(5-((((cyclopropylmethyl)(methyl)carbamoyl)oxy)methyl)-1-methyl-1H-1,2,3-triazol-4-yl)-2-(methoxymethyl)pyridin-3-yl)oxy)cyclohexane-1-carboxylic acid]	1010 nM
COCc1nc(-c2nnn(C)c2COC(=O)N(C)C2CCC2)ccc1O[C@H]1CCC[C@H](C(=O)O)C1 [Example 286, (1S,3S)-3-((6-(5-(((cyclobutyl(methyl)carbamoyl)oxy)methyl)-1-methyl-1H-1,2,3-triazol-4-yl)-2-(methoxymethyl)pyridin-3-yl)oxy)cyclohexane-1-carboxylic acid]	92 nM
COCc1nc(-c2nnn(C)c2COC(=O)N(C)C2CCCC2)ccc1O[C@H]1CCC[C@H](C(=O)O)C1 [Example 287, (1S,3S)-3-((6-(5-(((cyclopentyl(methyl)carbamoyl)oxy)methyl)-1-methyl-1H-1,2,3-triazol-4-yl)-2-(methoxymethyl)pyridin-3-yl)oxy)cyclohexane-1-carboxylic acid]	118 nM
[2H]C([2H])([2H])N(CCC)C(=O)OCc1c(-c2ccc(O[C@H]3CCC[C@H](C(=O)O)C3)c(C)n2)nnn1C [Example 288, (1S,3S)-3-((2-methyl-6-(1-methyl-5-((((methyl-d3)(propyl)carbamoyl)oxy)methyl)-1H-1,2,3-triazol-4-yl)pyridin-3-yl)oxy)cyclohexane-1-carboxylic acid]	29 nM
CN(CC1CC1)C(=O)OCc1c(-c2ccc(O[C@H]3CCC[C@H](C(=O)O)C3)c(C#N)n2)nnn1C [Example 289, (1S,3S)-3-((2-cyano-6-(5-((((cyclopropylmethyl)(methyl)carbamoyl)oxy)methyl)-1-methyl-1H-1,2,3-triazol-4-yl)pyridin-3-yl)oxy)cyclohexane-1-carboxylic acid]	40 nM
CN(Cc1ccccc1)C(=O)OCc1c(-c2ccc(O[C@H]3CCC[C@H](C(=O)O)C3)c(C#N)n2)nnn1C [Example 290, (1S,3S)-3-((6-(5-(((benzyl(methyl)carbamoyl)oxy)methyl)-1-methyl-1H-1,2,3-triazol-4-yl)-2-cyanopyridin-3-yl)oxy)cyclohexane-1-carboxylic acid]	2 nM
CCCCN(C)C(=O)OCc1c(-c2ccc(O[C@H]3CCC[C@H](C(=O)O)C3)c(C#N)n2)nnn1C [Example 291, (1S,3S)-3-((6-(5-(((butyl(methyl)carbamoyl)oxy)methyl)-1-methyl-1H-1,2,3-triazol-4-yl)-2-cyanopyridin-3-yl)oxy)cyclohexane-1-carboxylic acid]	15 nM
CN(CC1CCC1)C(=O)OCc1c(-c2ccc(O[C@H]3CCC[C@H](C(=O)O)C3)c(C#N)n2)nnn1C [Example 292, (1S,3S)-3-((2-cyano-6-(5-((((cyclobutylmethyl)(methyl)carbamoyl)oxy)methyl)-1-methyl-1H-1,2,3-triazol-4-yl)pyridin-3-yl)oxy)cyclohexane-1-carboxylic acid]	20 nM
CN(C(=O)OCc1c(-c2ccc(O[C@H]3CCC[C@H](C(=O)O)C3)c(C#N)n2)nnn1C)C1CCC1 [Example 293, (1S,3S)-3-((2-cyano-6-(5-(((cyclobutyl(methyl)carbamoyl)oxy)methyl)-1-methyl-1H-1,2,3-triazol-4-yl)pyridin-3-yl)oxy)cyclohexane-1-carboxylic acid]	23 nM
CN(C(=O)OCc1c(-c2ccc(O[C@H]3CCC[C@H](C(=O)O)C3)c(C#N)n2)nnn1C)C1CCCC1 [Example 294, (1S,3S)-3-((2-cyano-6-(5-(((cyclopentyl(methyl)carbamoyl)oxy)methyl)-1-methyl-1H-1,2,3-triazol-4-yl)pyridin-3-yl)oxy)cyclohexane-1-carboxylic acid]	15 nM
